Measurements from US9278097B2, “Prophylaxis and/or treatment of portal hypertension” (Universitatsklinikum Freiburg, priority 2003, dated 2016).

How the values were obtained:
Assay type in all cases: in vivo, human
volunteers [1] = test: Sonographic / Doppler sonographic measurement of blood flow through the liver and blood pressure before and 90 minutes after oral Sildenafil; conditions: 100 mg oral, n = 5, baseline mean 0.83
volunteers [2] = test: as above; conditions: 100 mg oral
Method: With ten volunteers, the base values of the blood flow through the liver were measured in the morning before breakfast by means of common sonographic or Doppler sonographic methods. Subsequently, 100 mg Sildenafil were administered orally for each test person. On the average, 90 minutes after administration of this drug, the measurements were repeated.

[3] = system: patients having portal hypertension (origin: liver cirrhosis in the status of Child A); test: Doppler sonography of liver haemodynamics before and 1 h after oral Vardenafil, patients; conditions: continuous measurement after 10 mg oral, FIG. 4
Method: In a further study, 16 healthy volunteers and 15 patients having portal hypertension (origin: liver cirrhosis in the status of Child A) were subjected to the following treatment:
In both the volunteers and the patients with empty stomach (10 hours of food leave), firstly the pulse rate and blood pressure under lying condition and subsequently the parameters of liver haemodynamics were measured by Doppler sonography.
The portal vein pressure is derived from the values obtained from the application of the apparatus Elegra from Siemens having a 3.5 MHz sectorial scanner (K. Haag et al., Am. J. Roentgenol 1999; 172: 631-635). Each measurement was carried out three times in total. The mean value from all three measurements was used. The measurements were carried out in the resting expiratory position. When measuring the flows and the flow volumina, the sonic angle lied below 60°. The sectional plane was basically chosen such that the vessel will be illustrated in its longitudinal route.
Flow measurements in the Vena portae as well as in their intrahepatic main stems. The determination of the flow volume in the portal vein, the Vena lienalis and the Vena mesenterica was carried out by Doppler-sonography, as measured by the options of the apparatus and by calculation through the formula: flow=π·d^2/4·Vmax2·60, wherein d is indicated in cm and Vmax is indicated in cm/s. Vena Lienalis: […]

[4] = system: patients, who had a pathological collateral or detour circulation, as originally caused by liver cirrhosis; test: Doppler sonography of flow in the porto-systemic detour circulation before and after oral Vardenafil; conditions: two patients, single oral administration of 10 mg
Method: Hereby, before and after a single oral administration of 10 mg Vardenafil, the flow in the porto-systemic detour circulation was measured by Doppler-sonography: once in a patient having V. coronaria ventriculi as well as oesophagus varices, and another time in a patient having re-opened V. umbilicalis.

[5] = system: patient having liver cirrhosis due to a chronic Hepatitis C; test: Invasive measurement of wedged hepatic vein pressure (portal vein pressure) by balloon catheter; conditions: one patient, 25 minutes after 10 mg oral; 31 mm Hg prior to administration
Method: In a patient having liver cirrhosis due to a chronic Hepatitis C, the wedged hepatic vein pressure, which can be equated with the portal vein pressure, was measured invasively. For this, a balloon catheter was introduced through the Vena jugularis interna into a small hepatic vein under X-ray control. Then, the free hepatic vein pressure may be measured, when the tip of the catheter lies freely in the lumen of the small vein. When the balloon is dilated (the diameter of this small hepatic vein amounts to a few mm), a congestion pressure is built-up at the tip of the catheter, corresponding to the portal vein pressure. In the tested patient, the portal vein pressure prior to the oral administration of a medicament was at 31 mm Hg.

CCCc1nn(C)c2c(=O)[nH]c(-c3cc(S(=O)(=O)N4CCN(C)CC4)ccc3OCC)nc12 [Sildenafil, 1-{[3-(6,7-Dihydro-1-methyl-7-oxo-3-propyl-1H-pyrazolo-[4,3-d]pyrimidin-5-yl)-4-ethoxyphenyl]sulfonyl}-4-methyl-piperazine]
Portal vein flow, change by Sildenafil (absolute) (volunteers [1]): +0.27 l/mm
Diameter of V. lienalis, change by Sildenafil (in %) (volunteers [2]; 90 minutes, n = 10): +13%
Diameter of portal vein, change by Sildenafil (in %) (volunteers [2]; 90 minutes, n = 10): +12.8%
Diastolic blood pressure, change by Sildenafil (in %) (volunteers [2]; 90 minutes, n = 10): −9.5%
Resistivity Index of A. hepatica communis, change by Sildenafil (in %) (volunteers [2]; 90 minutes, n = 10): +4.48%
Resistivity Index of Truncus coeliacus, change by Sildenafil (in %) (volunteers [2]; 90 minutes, n = 10): −1.5%
Vmax of V. lienalis, change by Sildenafil (in %) (volunteers [2]; 90 minutes, n = 10): −2.3%
Vmax of portal vein, change by Sildenafil (in %) (volunteers [2]; 90 minutes, n = 10): −5.3%
Resistivity Index of A. hepatica communis, change by Sildenafil (absolute) (volunteers [2]; 90 minutes, n = 10, baseline mean 0.67): +0.03
Resistivity Index of Truncus coeliacus, change by Sildenafil (absolute) (volunteers [2]; 90 minutes, n = 10, baseline mean 0.75): −0.115
Diameter of V. lienalis, change by Sildenafil (absolute) (volunteers [2]; 90 minutes, n = 10, baseline mean 7.7): 1.0 mm
Diameter of portal vein, change by Sildenafil (absolute) (volunteers [2]; 90 minutes, n = 10, baseline mean 11.7): 1.5 mm
Vmax of V. lienalis, change by Sildenafil (absolute) (volunteers [2]; 90 minutes, n = 10, baseline mean 20.14): -0.47 cm/s
Vmax of portal vein, change by Sildenafil (absolute) (volunteers [2]; 90 minutes, n = 10, baseline mean 30.5): -1.63 cm/s
Diastolic blood pressure, change by Sildenafil (absolute) (volunteers [2]; 90 minutes, n = 10, baseline mean 80.5): −7.64 mm Hg
Systolic blood pressure, change by Sildenafil (in %) (volunteers [2]; on average 90 minutes after administration, n = 10): −10.0%
Systolic blood pressure, change by Sildenafil (absolute) (volunteers [2]; on average 90 minutes after administration, n = 10, baseline mean 122): −12.21 mm Hg

CCCc1nc(C)c2c(=O)[nH]c(-c3cc(S(=O)(=O)N4CCN(CC)CC4)ccc3OCC)nn12 [Vardenafil]
Time after which increase of flow velocity in the portal vein and portal vein flow is clearly detectable ([3]; individual patient (liver cirrhosis), similar in practically all other patients): 15 min
Time at which effect on portal vein flow is most pronounced ([3]; individual patient): 20 to 30 min
Decrease of flow in the V. coronaria ventriculi or in the umbilical vein [4]: about 30%
Portal vein pressure (wedged hepatic vein pressure) [5]: 26 mm Hg
